System: MOLM-13
Test: cell viability (% survival relative to DMSO control, bortezomib = 0%); higher = less cytotoxic
Settings: 100 nM; 72 h
Summary of the method: (§1)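 Percent survival is reported as the mean of duplicate wells. Cells from 10 AML and 5 CML lines were plated in 384-well plates containing compounds at 1, 10, 100, 1000 or 10000 nM and kept for 72 h at 37 °C in 5% CO2. Readout used CellTiter-Glo luminescence, scaled so that vehicle equals 100% and a 10 µM positive control equals 0%.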

Structure (SMILES)	cell viability [%]
COC(=O)c1cc2c(C(F)(F)F)cc(-c3ccccc3)cc2n1O [NHI-2]	91.3
CCCCCCCC/C=C\CCCCCCCC(=O)Nc1ccccc1 [Octadec-9-Enoic Acid Phenylamide]	91.1
CC[C@H](C)[C@H](N)C(=O)N1CCSC1 [P32/98]	99.7
CC(=O)Nc1nc(C)c(-c2ccc(Cl)c(S(=O)(=O)NCCO)c2)s1 [PIK93]	89.9
OC[C@H]1O[C@@H](n2cnc3c2N=CNC[C@H]3O)C[C@@H]1O [Pentostatin]	101
CC(C)CC(=O)N[C@H](C(=O)N[C@H](C(=O)N[C@@H](CC(C)C)[C@@H](O)CC(=O)N[C@@H](C)C(=O)N[C@@H](CC(C)C)[C@@H](O)CC(=O)O)C(C)C)C(C)C [Pepstatin A]	109
Cc1cccc(Nc2cc(Cl)nc(SCC(=O)O)n2)c1C [Pirinixic acid]	87.1
C[C@]12C=CC(=O)C=C1CC[C@@H]1[C@@H]2[C@@H](O)C[C@@]2(C)[C@H]1CC[C@]2(O)C(=O)CO [Prednisolone]	118
C=CCN(C)CCCCCCOc1ccc(C(=O)c2ccc(Br)cc2)c(F)c1.O=C(O)/C=C/C(=O)O [Ro 48-8071 fumarate]	88.9

Same assay, conditions: 1000 nM; 72 h

Structure (SMILES)	cell viability [%]
CN(Cc1cnc2nc(N)nc(N)c2n1)c1ccc(C(=O)N[C@@H](CCC(=O)O)C(=O)O)cc1 [Methotrexate]	0.853
COC(=O)c1cc2c(C(F)(F)F)cc(-c3ccccc3)cc2n1O [NHI-2]	95.6
CCCCCCCC/C=C\CCCCCCCC(=O)Nc1ccccc1 [Octadec-9-Enoic Acid Phenylamide]	98.3
CC[C@H](C)[C@H](N)C(=O)N1CCSC1 [P32/98]	103
CC(=O)Nc1nc(C)c(-c2ccc(Cl)c(S(=O)(=O)NCCO)c2)s1 [PIK93]	50.2
OC[C@H]1O[C@@H](n2cnc3c2N=CNC[C@H]3O)C[C@@H]1O [Pentostatin]	110
CC(C)CC(=O)N[C@H](C(=O)N[C@H](C(=O)N[C@@H](CC(C)C)[C@@H](O)CC(=O)N[C@@H](C)C(=O)N[C@@H](CC(C)C)[C@@H](O)CC(=O)O)C(C)C)C(C)C [Pepstatin A]	126
Cc1cccc(Nc2cc(Cl)nc(SCC(=O)O)n2)c1C [Pirinixic acid]	111
C[C@]12C=CC(=O)C=C1CC[C@@H]1[C@@H]2[C@@H](O)C[C@@]2(C)[C@H]1CC[C@]2(O)C(=O)CO [Prednisolone]	106
C=CCN(C)CCCCCCOc1ccc(C(=O)c2ccc(Br)cc2)c(F)c1.O=C(O)/C=C/C(=O)O [Ro 48-8071 fumarate]	89.1

Same assay, conditions: 10000 nM; 72 h

Structure (SMILES)	cell viability [%]
CN(Cc1cnc2nc(N)nc(N)c2n1)c1ccc(C(=O)N[C@@H](CCC(=O)O)C(=O)O)cc1 [Methotrexate]	0.962
COC(=O)c1cc2c(C(F)(F)F)cc(-c3ccccc3)cc2n1O [NHI-2]	105
CCCCCCCC/C=C\CCCCCCCC(=O)Nc1ccccc1 [Octadec-9-Enoic Acid Phenylamide]	108
CC[C@H](C)[C@H](N)C(=O)N1CCSC1 [P32/98]	97.4
CC(=O)Nc1nc(C)c(-c2ccc(Cl)c(S(=O)(=O)NCCO)c2)s1 [PIK93]	0.72
OC[C@H]1O[C@@H](n2cnc3c2N=CNC[C@H]3O)C[C@@H]1O [Pentostatin]	114
CC(C)CC(=O)N[C@H](C(=O)N[C@H](C(=O)N[C@@H](CC(C)C)[C@@H](O)CC(=O)N[C@@H](C)C(=O)N[C@@H](CC(C)C)[C@@H](O)CC(=O)O)C(C)C)C(C)C [Pepstatin A]	86.5
Cc1cccc(Nc2cc(Cl)nc(SCC(=O)O)n2)c1C [Pirinixic acid]	84.6
C[C@]12C=CC(=O)C=C1CC[C@@H]1[C@@H]2[C@@H](O)C[C@@]2(C)[C@H]1CC[C@]2(O)C(=O)CO [Prednisolone]	109
C=CCN(C)CCCCCCOc1ccc(C(=O)c2ccc(Br)cc2)c(F)c1.O=C(O)/C=C/C(=O)O [Ro 48-8071 fumarate]	62.2

System: Mono-Mac-6
Test: as above
Settings: 1 nM; 72 h
Summary of the method: as §1

Structure (SMILES)	cell viability [%]
CN(Cc1cnc2nc(N)nc(N)c2n1)c1ccc(C(=O)N[C@@H](CCC(=O)O)C(=O)O)cc1 [Methotrexate]	105
COC(=O)c1cc2c(C(F)(F)F)cc(-c3ccccc3)cc2n1O [NHI-2]	93.6
CCCCCCCC/C=C\CCCCCCCC(=O)Nc1ccccc1 [Octadec-9-Enoic Acid Phenylamide]	97.1
CC[C@H](C)[C@H](N)C(=O)N1CCSC1 [P32/98]	93.6
CC(=O)Nc1nc(C)c(-c2ccc(Cl)c(S(=O)(=O)NCCO)c2)s1 [PIK93]	95.8
OC[C@H]1O[C@@H](n2cnc3c2N=CNC[C@H]3O)C[C@@H]1O [Pentostatin]	104
CC(C)CC(=O)N[C@H](C(=O)N[C@H](C(=O)N[C@@H](CC(C)C)[C@@H](O)CC(=O)N[C@@H](C)C(=O)N[C@@H](CC(C)C)[C@@H](O)CC(=O)O)C(C)C)C(C)C [Pepstatin A]	101
Cc1cccc(Nc2cc(Cl)nc(SCC(=O)O)n2)c1C [Pirinixic acid]	105
C[C@]12C=CC(=O)C=C1CC[C@@H]1[C@@H]2[C@@H](O)C[C@@]2(C)[C@H]1CC[C@]2(O)C(=O)CO [Prednisolone]	93.7
C=CCN(C)CCCCCCOc1ccc(C(=O)c2ccc(Br)cc2)c(F)c1.O=C(O)/C=C/C(=O)O [Ro 48-8071 fumarate]	92.2

Same assay, conditions: 10 nM; 72 h

Structure (SMILES)	cell viability [%]
CN(Cc1cnc2nc(N)nc(N)c2n1)c1ccc(C(=O)N[C@@H](CCC(=O)O)C(=O)O)cc1 [Methotrexate]	44.3
COC(=O)c1cc2c(C(F)(F)F)cc(-c3ccccc3)cc2n1O [NHI-2]	102
CCCCCCCC/C=C\CCCCCCCC(=O)Nc1ccccc1 [Octadec-9-Enoic Acid Phenylamide]	103
CC[C@H](C)[C@H](N)C(=O)N1CCSC1 [P32/98]	99
CC(=O)Nc1nc(C)c(-c2ccc(Cl)c(S(=O)(=O)NCCO)c2)s1 [PIK93]	90.9
OC[C@H]1O[C@@H](n2cnc3c2N=CNC[C@H]3O)C[C@@H]1O [Pentostatin]	94.2
CC(C)CC(=O)N[C@H](C(=O)N[C@H](C(=O)N[C@@H](CC(C)C)[C@@H](O)CC(=O)N[C@@H](C)C(=O)N[C@@H](CC(C)C)[C@@H](O)CC(=O)O)C(C)C)C(C)C [Pepstatin A]	83.7
Cc1cccc(Nc2cc(Cl)nc(SCC(=O)O)n2)c1C [Pirinixic acid]	106
C[C@]12C=CC(=O)C=C1CC[C@@H]1[C@@H]2[C@@H](O)C[C@@]2(C)[C@H]1CC[C@]2(O)C(=O)CO [Prednisolone]	90.3
C=CCN(C)CCCCCCOc1ccc(C(=O)c2ccc(Br)cc2)c(F)c1.O=C(O)/C=C/C(=O)O [Ro 48-8071 fumarate]	87.6

Same assay, conditions: 100 nM; 72 h

Structure (SMILES)	cell viability [%]
CN(Cc1cnc2nc(N)nc(N)c2n1)c1ccc(C(=O)N[C@@H](CCC(=O)O)C(=O)O)cc1 [Methotrexate]	5.95
COC(=O)c1cc2c(C(F)(F)F)cc(-c3ccccc3)cc2n1O [NHI-2]	114
CCCCCCCC/C=C\CCCCCCCC(=O)Nc1ccccc1 [Octadec-9-Enoic Acid Phenylamide]	108
CC[C@H](C)[C@H](N)C(=O)N1CCSC1 [P32/98]	109
CC(=O)Nc1nc(C)c(-c2ccc(Cl)c(S(=O)(=O)NCCO)c2)s1 [PIK93]	85.5
OC[C@H]1O[C@@H](n2cnc3c2N=CNC[C@H]3O)C[C@@H]1O [Pentostatin]	105
CC(C)CC(=O)N[C@H](C(=O)N[C@H](C(=O)N[C@@H](CC(C)C)[C@@H](O)CC(=O)N[C@@H](C)C(=O)N[C@@H](CC(C)C)[C@@H](O)CC(=O)O)C(C)C)C(C)C [Pepstatin A]	104
Cc1cccc(Nc2cc(Cl)nc(SCC(=O)O)n2)c1C [Pirinixic acid]	98.4
C[C@]12C=CC(=O)C=C1CC[C@@H]1[C@@H]2[C@@H](O)C[C@@]2(C)[C@H]1CC[C@]2(O)C(=O)CO [Prednisolone]	151
C=CCN(C)CCCCCCOc1ccc(C(=O)c2ccc(Br)cc2)c(F)c1.O=C(O)/C=C/C(=O)O [Ro 48-8071 fumarate]	92.4

Same assay, conditions: 1000 nM; 72 h

Structure (SMILES)	cell viability [%]
CN(Cc1cnc2nc(N)nc(N)c2n1)c1ccc(C(=O)N[C@@H](CCC(=O)O)C(=O)O)cc1 [Methotrexate]	7.21
